{"source": "patent US11541029B2", "about": "“High penetration compositions and their applications” (Techfields Pharma Co., Ltd., priority 2008, dated 2023)", "key": {"SLAC/DB/DB obese mice": {"test_system": "SLAC/DB/DB obese mice", "experiment": "Blood glucose and blood lipid levels in DB/DB mice", "assay_type": "in vivo", "conditions": "30 mg/kg transdermally once per day", "in_short": "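SLAC/DB/DB mice aged 10-12 weeks, n=7, dosed transdermally at 30 mg/kg in 25% ethanol onto a shaved 4 cm^2 back area once daily at 8 am for 5 weeks. Blood glucose measured weekly; blood lipids every other week.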"}, "[1]": {"test_system": "rats given sterilized E. coli suspension as a pyrogen", "experiment": "Antipyretic activity of aspirin and its HPC (Study B)", "assay_type": "in vivo", "conditions": "for body temperature: in °C (unit assumed)", "method": "[…] Group A was the control group. The body temperature of rats was taken at 90 min. intervals before and after the administration of the test compounds."}, "[2]": {"test_system": "fungal diseases and insects of peach trees", "experiment": "Antiviral, anti-fungus, anti-insect activity in peach trees", "assay_type": "in vivo", "method": "240 Peach trees were divided into 4 groups. All field operations concerning land preparation and the uses of fertilizers were same for all groups. Group A (n=60) was control group with no chemical treatments. Group B (n=60) was normal fungicides and insecticides-treated group. Group C (n=60) was treated with N,N-diethylaminoethyl acetylsalicylate plus some insecticides. Group D (n=60) was N,N-diethylaminoethyl acetylsalicylate and N,N-diethylaminoethyl jasmonate.citric acid treated group. In group A, Peach Leaf Curl, Peach Scab, Brown Rot, Black Knot and other fungal diseases were found and different scale insects, Shothole Borer, Peach tree Borer, Lesser Peachtree Borer, fruit Moth and other diseases and insects were found. No any good (edible) fruits were harvested. In group B, 100 g of ferbam [iron tris(dimethyldithiocarbamate)] […] Group C was N,N-diethylaminoethyl acetylsalicylate-treated group. 50 g of N,N-diethylaminoethyl acetylsalicylate in 50 kg of water was applied to the group C Peach trees on November 15, March 1, March 20, and June 20, 50 g of N,N-diethylaminoethyl acetylsalicylate, 125 g of Malathion 50% EC, 125 g of 1-naphthyl methylcarbamate 50% WP and 60 g of thiophanate-methyl 50% WP in 50 kg of water was applied to the group C peach trees on April 1, April 20, May 10, and May 30. Yield 3000 kg of good (edible) peaches. […]"}, "[3]": {"experiment": "Amount of salicylic acid in rat brain tissue (blood-brain barrier), 0.5 mmol/kg", "assay_type": "in vivo, rats", "method": "30, 60, 120, 240, 480 minutes after the test compound was administrated, rats were decapitated and were perfused with normal Krebs-Henseleit buffer (with Heparin Sodium, pH7.4) (10 mL/min) to remove blood. […] The mixture was centrifuged for 5 minutes at 16,000 rpm. The supernatant (2 ml) was collected and evaporated to dryness."}}, "data": [{"smiles": "CCN(CC)CCOC(=O)c1ccccc1OC(C)=O.Cl", "note": "[P-1, diethylaminoethyl acetylsalicylate.HCl salt]", "values": [{"measurement": "Cholesterol (total), Day 1", "setting": "SLAC/DB/DB obese mice", "result": "7.1 ± 0.4", "unit": "mmol/L"}, {"measurement": "Cholesterol (total), Week 5", "setting": "SLAC/DB/DB obese mice", "result": "4.1 ± 0.4", "unit": "mmol/L"}, {"measurement": "Triglycerides, Day 1", "setting": "SLAC/DB/DB obese mice", "result": "4.1 ± 0.5", "unit": "mmol/L"}, {"measurement": "Triglycerides, Week 5", "setting": "SLAC/DB/DB obese mice", "result": "1.5 ± 0.3", "unit": "mmol/L"}, {"measurement": "blood glucose, Day 1", "setting": "SLAC/DB/DB obese mice", "result": "14.1 ± 2.6", "unit": "mmol/L"}, {"measurement": "blood glucose, Week 5", "setting": "SLAC/DB/DB obese mice", "result": "6.8 ± 2.8", "unit": "mmol/L"}, {"measurement": "antipyretic activity", "setting": "[1]; 20 mg/kg, oral administration", "result": "almost the same antipyretic activity as 100 mg/kg of aspirin"}, {"measurement": "body temperature", "setting": "[1]; 20 mg/kg, orally, t = 0 min.", "result": "37.6 ± 0.3"}, {"measurement": "body temperature", "setting": "[1]; 20 mg/kg, orally, t = 90 min.", "result": "37.1 ± 0.4"}, {"measurement": "body temperature", "setting": "[1]; 20 mg/kg, orally, t = 180 min.", "result": "36.8 ± 0.2"}, {"measurement": "body temperature", "setting": "[1]; 20 mg/kg, orally, t = 270 min.", "result": "36.5 ± 0.3"}, {"measurement": "body temperature", "setting": "[1]; 50 mg/kg, orally, t = 0 min.", "result": "37.6 ± 0.3"}, {"measurement": "body temperature", "setting": "[1]; 50 mg/kg, orally, t = 90 min.", "result": "36.7 ± 0.3"}, {"measurement": "body temperature", "setting": "[1]; 50 mg/kg, orally, t = 180 min.", "result": "36.5 ± 0.2"}, {"measurement": "body temperature", "setting": "[1]; 50 mg/kg, orally, t = 270 min.", "result": "36.4 ± 0.3"}, {"measurement": "body temperature", "setting": "[1]; 100 mg/kg, orally, t = 0 min.", "result": "37.6 ± 0.4"}, {"measurement": "body temperature", "setting": "[1]; 100 mg/kg, orally, t = 90 min.", "result": "36.6 ± 0.4"}, {"measurement": "body temperature", "setting": "[1]; 100 mg/kg, orally, t = 180 min.", "result": "36.5 ± 0.3"}, {"measurement": "body temperature", "setting": "[1]; 100 mg/kg, orally, t = 270 min.", "result": "36.4 ± 0.3"}, {"measurement": "body temperature", "setting": "[1]; groups H/I, 50 mg/kg, transdermally, t = 0 min.", "result": "37.5 ± 0.3"}, {"measurement": "body temperature", "setting": "[1]; groups H/I, 50 mg/kg, transdermally, t = 90 min.", "result": "36.5 ± 0.2"}, {"measurement": "body temperature", "setting": "[1]; groups H/I, 50 mg/kg, transdermally, t = 180 min.", "result": "36.3 ± 0.3"}, {"measurement": "body temperature", "setting": "[1]; groups H/I, 50 mg/kg, transdermally, t = 270 min.", "result": "36.4 ± 0.2"}, {"measurement": "body temperature", "setting": "[1]; groups J/K, 20 mg/kg, transdermally, t = 0 min.", "result": "37.5 ± 0.4"}, {"measurement": "body temperature", "setting": "[1]; groups J/K, 20 mg/kg, transdermally, t = 90 min.", "result": "36.7 ± 0.2"}, {"measurement": "body temperature", "setting": "[1]; groups J/K, 20 mg/kg, transdermally, t = 180 min.", "result": "36.4 ± 0.2"}, {"measurement": "body temperature", "setting": "[1]; groups J/K, 20 mg/kg, transdermally, t = 270 min.", "result": "36.4 ± 0.2"}, {"measurement": "body temperature", "setting": "[1]; groups L/M, 20 mg/kg, transdermally, t = 0 min.", "result": "37.6 ± 0.2"}, {"measurement": "body temperature", "setting": "[1]; groups L/M, 20 mg/kg, transdermally, t = 90 min.", "result": "36.5 ± 0.4"}, {"measurement": "body temperature", "setting": "[1]; groups L/M, 20 mg/kg, transdermally, t = 180 min.", "result": "36.4 ± 0.3"}, {"measurement": "body temperature", "setting": "[1]; groups L/M, 20 mg/kg, transdermally, t = 270 min.", "result": "36.5 ± 0.2"}, {"measurement": "Yield of good (edible) peaches", "setting": "[2]; 60 trees per group, some insecticides/fungicides co-applied", "result": 3000, "unit": "kg"}, {"measurement": "harvest dates earlier", "setting": "[2]; groups C and D", "result": 1, "unit": "week"}, {"measurement": "salicylic acid in brain tissue", "setting": "[3]; intramuscularly, 30 min", "result": "6.5 ± 2.2", "unit": "nmol/g"}, {"measurement": "salicylic acid in brain tissue", "setting": "[3]; intramuscularly, 60 min", "result": "8.2 ± 2.3", "unit": "nmol/g"}, {"measurement": "salicylic acid in brain tissue", "setting": "[3]; intramuscularly, 120 min", "result": "9.4 ± 3.1", "unit": "nmol/g"}, {"measurement": "salicylic acid in brain tissue", "setting": "[3]; intramuscularly, 240 min", "result": "8.5 ± 2.5", "unit": "nmol/g"}, {"measurement": "salicylic acid in brain tissue", "setting": "[3]; intramuscularly, 480 min", "result": "8.2 ± 2.3", "unit": "nmol/g"}, {"measurement": "salicylic acid in brain tissue", "setting": "[3]; transdermally, 30 min", "result": "3.1 ± 1.1", "unit": "nmol/g"}, {"measurement": "salicylic acid in brain tissue", "setting": "[3]; transdermally, 60 min", "result": "6.3 ± 2.3", "unit": "nmol/g"}, {"measurement": "salicylic acid in brain tissue", "setting": "[3]; transdermally, 120 min", "result": "8.2 ± 3.5", "unit": "nmol/g"}, {"measurement": "salicylic acid in brain tissue", "setting": "[3]; transdermally, 240 min", "result": "9.3 ± 3.3", "unit": "nmol/g"}, {"measurement": "salicylic acid in brain tissue", "setting": "[3]; transdermally, 480 min", "result": "9.5 ± 4.2", "unit": "nmol/g"}]}]}
